“Also recorded” adds a separate entry of the source. Read-outs that look alike come from different tables or passages of the source.
Assays:
[1] = system: influenza virus A/WSN/33(H1N1); assay: Cytopathic effect (CPE) inhibition assay, WSN virus in MDCK cells; assay type: cell-based; details: for Viral Infectivity (%) / anti-influenza virus activity: 50 μM; for Viral Infectivity (%): WSN MOI=1, 48 h, lower = better inhibition; for anti-influenza virus activity: WSN, CPE; for EC50: H1N1|WSN, MDCK, 48 h
MDCK cells = details: dog, 48 h; for Cell viability(%) / Cell viability (%): 50 μM
in vitro [2] = details: human
in vitro [3] = details: dog
in vitro [4] = details: human; remark: listed apart in the source
[5] = system: A/Puerto Rico/8/34 (H1N1); assay: CPE reduction assay, PR/8 (H1N1); assay type: cell-based; details: Influenza A virus
[6] = system: A/JiangXi-DongHu/312/2006 (H3N2); assay: microbe, parasite or virus in culture; assay type: cell-based, influenza A virus
B/ShenZhen/155/2005 = assay: CPE reduction assay, B/SZ/155; assay type: cell-based; details: Influenza B virus, B/SZ/155, CPE
[7] = system: different influenza viruses; assay: CPE reduction assays on different influenza viruses; assay type: cell-based, influenza A virus and influenza B virus; details: for inhibition effect on different influenza viruses: PR/8, LN/1109, JX/312, HN/1222, B/SZ/155
HIV = details: reported by European researchers; cited from earlier work
[8] = PR/8 (H1N1), CPE, read-out: EC50

SMILES | Viral Infectivity (%) ([1]; Table 6) | anti-influenza virus activity [1] | Cell viability(%) (MDCK cells) | Viral Infectivity (%) ([1]; Table 8) | Cell viability (%) (MDCK cells) | also measured
CC1(C)CC[C@]2(C(=O)O[C@H]3OC(CO)[C@H](O)C(O)C3O)C(O)C[C@]3(C)C(=CC[C@@H]4[C@@]5(C)CC[C@H](O)C(C)(C)C5CC[C@]43C)[C@@H]2C1 (stereo partly drawn) [Compound Q2, 3β,16α-dihydroxy-olean-12-en-28-oic acid-28-O-(β-D-glucoside)] | 76.2 | some anti-influenza virus activity | 101.1 |  |  | 
CC(=O)OC1C(OC(C)=O)[C@@H](OC(C)=O)CO[C@@H]1OC(=O)[C@]12CCC(C)(C)C[C@H]1C1=CC[C@@H]3[C@@]4(C)CC[C@H](O)C(C)(C)[C@@H]4CC[C@@]3(C)[C@]1(C)CC2O (stereo partly drawn) [Compound Q3, 3β,16α-dihydroxy-olean-12-en-28-oic acid-28-O-(2,3,4-tri-O-acetyl-β-D-xyloside)] | 71.1 | some anti-influenza virus activity | 100.4 |  |  | 
CC(=O)OC1C(OC(C)=O)[C@H](OC(C)=O)CO[C@@H]1OC(=O)[C@]12CCC(C)(C)C[C@H]1C1=CC[C@@H]3[C@@]4(C)CC[C@H](O)C(C)(C)[C@@H]4CC[C@@]3(C)[C@]1(C)CC2O (stereo partly drawn) [Compound Q5, 3β,16α-dihydroxy-olean-12-en-28-oic acid-28-O-(2,3,4-tri-O-acetyl-β-D-arabinoside)] | 107.5 |  | 100.9 |  |  | 
CC(=O)OCC1O[C@H](OC(=O)[C@]23CCC(C)(C)C[C@H]2C2=CC[C@@H]4[C@@]5(C)CC[C@H](O)C(C)(C)[C@@H]5CC[C@@]4(C)[C@]2(C)CC3O)C(OC(C)=O)C(OC(C)=O)[C@@H]1OC(C)=O (stereo partly drawn) [Compound Q8, 3β,16α-dihydroxy-olean-12-en-28-oic acid-28-O-(2,3,4,6-tetra-O-acetyl-α-D-galactoside)] | 109.7 |  | 102.6 |  |  | 
CC(=O)OCC1O[C@H](O[C@H]2C(COC(C)=O)O[C@H](OC(=O)[C@]34CCC(C)(C)C[C@H]3C3=CC[C@@H]5[C@@]6(C)CC[C@H](O)C(C)(C)[C@@H]6CC[C@@]5(C)[C@]3(C)CC4O)C(OC(C)=O)C2OC(C)=O)C(OC(C)=O)C(OC(C)=O)[C@@H]1OC(C)=O (stereo partly drawn) [Compound Q10, 3β,16α-dihydroxy-olean-12-en-28-oic acid-28-O-(hepta-O-acetyl-β-D-lactoside)] | 100.6 |  | 98.1 |  |  | EC50 [1]: > 100 µM; CC50 at 48 h (in vitro [2]): > 100 µM; CC50 at 48 h (in vitro [3]): > 100 µM; CC50 at 48 h (in vitro [4]): > 100 µM
CC1(C)CC[C@]2(C(=O)O[C@H]3OC(CO)[C@H](O[C@H]4OC(CO)[C@@H](O)C(O)C4O)C(O)C3O)C(O)C[C@]3(C)C(=CC[C@@H]4[C@@]5(C)CC[C@H](O)C(C)(C)[C@@H]5CC[C@]43C)[C@@H]2C1 (stereo partly drawn) [Compound Q11, 3β,16α-dihydroxy-olean-12-en-28-oic acid-28-O-(β-D-lactoside)] | 82.6 | some anti-influenza virus activity | 92.8 |  |  | 
CC(=O)OCC1O[C@@H](O[C@H]2C(COC(C)=O)O[C@H](OC(=O)[C@]34CCC(C)(C)C[C@H]3C3=CC[C@@H]5[C@@]6(C)CC[C@H](O)C(C)(C)[C@@H]6CC[C@@]5(C)[C@]3(C)CC4O)C(OC(C)=O)C2OC(C)=O)C(OC(C)=O)C(OC(C)=O)[C@H]1OC(C)=O (stereo partly drawn) [Compound Q12, 3β,16α-dihydroxy-olean-12-en-28-oic acid-28-O-(hepta-O-acetyl-β-D-maltoside)] | 80.1 | some anti-influenza virus activity | 93.3 |  |  | 
CC1(C)CC[C@]2(C(=O)O[C@H]3OC(CO)[C@H](O[C@@H]4OC(CO)[C@H](O)C(O)C4O)C(O)C3O)C(O)C[C@]3(C)C(=CC[C@@H]4[C@@]5(C)CC[C@H](O)C(C)(C)[C@@H]5CC[C@]43C)[C@@H]2C1 (stereo partly drawn) [Compound Q13, 3β,16α-dihydroxy-olean-12-en-28-oic acid-28-O-(β-D-maltoside)] | 115.5 |  | 91.7 |  |  | 
CC1(C)CC[C@]2(C(=O)O[C@H]3OC(CO)[C@H](O[C@H]4OC(CO)[C@H](O)C(O)C4O)C(O)C3O)C(O)C[C@]3(C)C(=CC[C@@H]4[C@@]5(C)CC[C@H](O)C(C)(C)[C@@H]5CC[C@]43C)[C@@H]2C1 (stereo partly drawn) [Compound Q14, 3β,16α-dihydroxy-olean-12-en-28-oic acid-28-O-(β-D-cellobioside)] | 154.4 |  | 98.3 |  |  | 
CC(=O)OCC1O[C@H](NC(=O)[C@]23CCC(C)(C)CC2C2=CCC4[C@@]5(C)CC[C@H](O)C(C)(C)C5CC[C@@]4(C)[C@]2(C)C[C@H]3O)C(OC(C)=O)C(OC(C)=O)[C@@H]1OC(C)=O (stereo partly drawn) [Compound Y1, 3β,16α-dihydroxy-olean-12-en-28-oic acid-28-N-(2,3,4,6-tetra-O-acetyl-β-D-galactoside)] |  | significant anti-influenza virus activity |  | 16.4 | 84.8 | 
CC1(C)CC[C@@]2(C(=O)N[C@H]3OC(CO)[C@@H](O)C(O)C3O)C(C1)C1=CCC3[C@@]4(C)CC[C@H](O)C(C)(C)C4CC[C@@]3(C)[C@]1(C)C[C@H]2O (stereo partly drawn) [Compound Y2, 3β,16α-dihydroxy-olean-12-en-28-oic acid-28-N-(β-D-galactoside)] |  | significant anti-influenza virus activity |  | 17.5 | 105.0 | EC50 [5, 8]: 6.22 ± 0.83 µM; EC50 [6]: > 22.2 µM; EC50 (B/ShenZhen/155/2005): > 22.2 µM; inhibition effect on different influenza viruses [7]: various extent of inhibition effect; CC50 at 48 h (in vitro [3]): > 100 µM
CC(=O)OCC1O[C@H](NC(=O)[C@]23CCC(C)(C)CC2C2=CCC4[C@@]5(C)CCC(=O)C(C)(C)C5CC[C@@]4(C)[C@]2(C)CC3=O)C(OC(C)=O)C(OC(C)=O)[C@@H]1OC(C)=O (stereo partly shown) [Compound Y3] |  | significant anti-influenza virus activity |  | 16.3 | 80.8 | 
CC1(C)CC[C@]2(C(=O)N[C@H]3OC(CO)[C@@H](O)C(O)C3O)C(=O)C[C@]3(C)C(=CCC4[C@@]5(C)CCC(=O)C(C)(C)C5CC[C@]43C)C2C1 (stereo partly drawn) [Compound Y4, 3,16-dione-olean-12-en-28-oic acid-28-N-(β-D-galactoside)] |  |  |  | 31.1 | 98.5 | 
CC(=O)OCC1O[C@H](NC(=O)[C@]23CCC(C)(C)CC2C2=CCC4[C@@]5(C)CC[C@H](O)C(C)(C)C5CC[C@@]4(C)[C@]2(C)CC3)C(OC(C)=O)C(OC(C)=O)[C@@H]1OC(C)=O (stereo partly drawn) [Compound Y5, 3β-hydroxy-olean-12-en-28-oic acid-28-N-(2,3,4,6-tetra-O-acetyl-β-D-galactoside)] |  | significant anti-influenza virus activity; also recorded: most significant anti-influenza virus activity |  | 9.0 | 81.7 | EC50 [5, 8]: 7.41 ± 0.05 µM; EC50 ([6]; Influenza A virus, H3N2): 2.72 ± 0.35 µM; EC50 (B/ShenZhen/155/2005): 2.8 ± 0.74 µM; inhibition effect on different influenza viruses [7]: various extent of inhibition effect; EC50 ([7]; strain not specified): < 2 µM; CC50 at 48 h (in vitro [3]): > 100 µM
CC(=O)OCC1O[C@H](NC(=O)[C@]23CCC(C)(C)CC2C2=CCC4[C@@]5(C)CC[C@H](O)C(C)(C)C5CC[C@@]4(C)[C@]2(C)CC3)C(OC(C)=O)C(OC(C)=O)[C@H]1OC(C)=O (stereo partly drawn) [Compound Y7, 3β-hydroxy-olean-12-en-28-oic acid-28-N-(2,3,4,6-tetra-O-acetyl-β-D-mannoside)] |  | significant anti-influenza virus activity |  | 17.4 | 82.3 | 
CC1(C)CC[C@]2(C(=O)N[C@H]3OC(CO)[C@H](O)C(O)C3O)CC[C@]3(C)C(=CCC4[C@@]5(C)CC[C@H](O)C(C)(C)C5CC[C@]43C)C2C1 (stereo partly drawn) [Compound Y8, 3β-hydroxy-olean-12-en-28-oic acid-28-N-(β-D-galactoside)] |  | significant anti-influenza virus activity |  | 19.5 | 85.0 | 
CCOC(=O)C1=C[C@@H](OC(CC)CC)[C@H](NC(C)=O)[C@@H](N)C1 [OSV-P, oseltamivir phosphate, reference compound] |  |  |  |  |  | EC50 [1]: 45.6 µM; EC50 [5, 8]: > 200 µM; EC50 ([6]; Influenza A virus, H3N2): 2.06 ± 0.58 µM; EC50 (B/ShenZhen/155/2005): 91.1 ± 34.5 µM; CC50 (MDCK cells): > 200 µM; CC50 at 48 h (in vitro [2]): > 100 µM; CC50 at 48 h (in vitro [3]): > 100 µM; CC50 at 48 h (in vitro [4]): > 100 µM
NC(=O)c1ncn([C@@H]2O[C@H](CO)[C@@H](O)[C@H]2O)n1 [RBV, ribavirin, reference compound] |  |  |  |  |  | EC50 [1]: 42.7 µM; EC50 [5]: 4.02 ± 1.27 µM; EC50 ([6]; Influenza A virus, H3N2): 4.19 ± 0.35 µM; EC50 (B/ShenZhen/155/2005): 1.32 ± 0.6 µM
CC1(C)CC[C@]2(C(=O)O)CC[C@]3(C)C(=CC[C@@H]4[C@@]5(C)C[C@@H](O)[C@H](O)C(C)(C)[C@@H]5CC[C@]43C)[C@@H]2C1 [hawthorn acid] |  |  |  |  |  | inhibition rate of spread of HIV in the body (HIV): up to 80%

Reference: US9920088B2, “Triterpene derivative and its anti-influenza use” (Peking University, priority 2012, dated 2018)
